Reference: PMC10178204, “Peptaibol Analogs Show Potent Antibacterial Activity against Multidrug Resistant Opportunistic Pathogens” (International Journal of Molecular Sciences, 2023)
≈ marks a conversion by molar mass, not a printed value. Where “and” joins values, the source holds several entries; their conditions need not be identical. Equal values may be shown once. Non-standard residues stand in square brackets, D forms with d. Residues, ends and D or L forms follow the SMILES beside them. *: point of attachment. Leu(ol) = CC(C)C[C@H](N)CO; Octanoyl = CCCCCCCC(=O)*; Aib = CC(C)(N)C(=O)O

Assays:
[1] = test system: Bacillus subtilis ATCC 6633; conditions: MHB, 5 × 10^5 CFU/mL, 18 h, 35 °C, triplicate
In short: (§1)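 Broth microdilution in Mueller–Hinton broth, run in triplicate, inoculum 5 × 10^5 CFU/mL per CLSI M07-A10; MIC and MBC both determined. Peptides dissolved in DMSO at 25 mg/mL as stock.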

[2] = test system: Streptococcus pyogenes ATCC 12344; conditions: MHB, 5 × 10^5 CFU/mL, 18 h, 35 °C, triplicate
In short: as §1

[3] = test system: Klebsiella pneumoniae ATCC 13833; conditions: MHB, 5 × 10^5 CFU/mL, 18 h, 35 °C, triplicate
In short: as §1

Escherichia coli CCUGT = conditions: MHB, 5 × 10^5 CFU/mL, 18 h, 35 °C, triplicate
In short: as §1

[4] = test system: Enterococcus faecalis ATCC 29212; conditions: MHB, 5 × 10^5 CFU/mL, 18 h, 35 °C, triplicate
In short: as §1

[5] = test system: Pseudomonas aeruginosa ATCC 27853; conditions: MHB, 5 × 10^5 CFU/mL, 18 h, 35 °C, triplicate
In short: as §1

[6] = test system: reference Gram-positive and Gram-negative strains; conditions: for lowest MIC: lowest value over the eight reference strains
In short: as §1

[7] = test system: Acinetobacter baumannii ATCC 17978; conditions: for MBC Aba / MIC Aba: MHB, 5 × 10^5 CFU/mL, 18 h, 35 °C, triplicate; for MIC against A. baumannii, in molar units: corresponding to 2 and 8 μg/mL
In short: as §1

[8] = test system: Staphylococcus aureus ATCC 25923; conditions: MHB, 5 × 10^5 CFU/mL, 18 h, 35 °C, triplicate
In short: as §1

[9] = test system: A. baumannii SI-648 (OXA-23, OXA-51-like); conditions: MHB, 5 × 10^5 CFU/mL, 18 h, 35 °C, triplicate
Experimental: (§2) The minimum inhibitory concentration (MIC) and the minimum bactericidal concentration (MBC) of the compounds were determined in triplicate using Mueller–Hinton broth (MHB). […] Therefore, we decided to dissolve all peptides in DMSO to a final concentration of 25 mg/mL, for consistency. The bacteria inoculum was 5 × 10^5 CFU/mL, as recommended by CLSI (Document M07-A10, 2015). […] Reference-type strains, including representatives of both Gram-positive bacteria (Bacillus subtilis ATCC 6633, Enterococcus faecalis ATCC 29212, Staphylococcus aureus ATCC 25923, the methicillin-resistant Staphylococcus aureus ATCC 43300 (MRSA), Streptococcus pyogenes ATCC 12344) and Gram-negative bacteria (Escherichia coli CCUGT, Klebsiella pneumoniae ATCC 13833, Pseudomonas aeruginosa ATCC 27853, and Acinetobacter baumannii ATCC 17978), were acquired from ATCC or CCUG culture collections. Other antibiotic-resistant clinical isolates were present in our collection at the University Teaching Hospital (Azienda Ospedaliero-Universitaria Senese ‘Santa Maria alle Scotte’) in Siena, Tuscany, Italy. Specifically, MDR carbapenem-hydrolyzing class D β-lactamase-producing Acinetobacter baumannii and metallo-β-lactamase-producing Pseudomonas aeruginosa were used in this study (Table 4).

[10] = test system: P. aeruginosa VR-143/97 (VIM-1); conditions: MHB, 5 × 10^5 CFU/mL, 18 h, 35 °C, triplicate
Experimental: as §2

[11] = test system: S. aureus ATCC 43300 (MRSA); conditions: MHB, 5 × 10^5 CFU/mL, 18 h, 35 °C, triplicate
Experimental: as §2

[12] = test system: A. baumannii SI-310 (OXA-24); conditions: colistin-resistant isolate; MHB, 5 × 10^5 CFU/mL, 18 h, 35 °C, triplicate
Experimental: as §2

[13] = test system: P. aeruginosa 101/1477 (IMP-1); conditions: MHB, 5 × 10^5 CFU/mL, 18 h, 35 °C, triplicate
Experimental: as §2

[14] = test system: P. aeruginosa 506/99 (VIM-2); conditions: MHB, 5 × 10^5 CFU/mL, 18 h, 35 °C, triplicate
Experimental: as §2

[15] = test system: A. baumannii SI-12 (OXA-23); conditions: MHB, 5 × 10^5 CFU/mL, 18 h, 35 °C, triplicate
Experimental: as §2

[16] = test system: P. aeruginosa VA-182/00 (VIM-2); conditions: MHB, 5 × 10^5 CFU/mL, 18 h, 35 °C, triplicate
Experimental: as §2

[17] = test system: blood agar plate (Columbia CNA Agar); assay: Hemolysis on blood agar plate; conditions: 50 μg peptide (2 μL of 25 mg/mL in DMSO) spotted on blood agar, 35 ± 2 °C, 24 h, visual, triplicate
In short: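 Peptides (50 μg, from 25 mg/mL DMSO solution) spotted on Columbia CNA blood agar, incubated at 35 ± 2 °C for 24 h. Hemolysis zone diameter measured visually, averaged over triplicates. Triton X-100 positive, DMSO negative control.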

Row | Molecule | MBC Bsu [1] [µg/mL] | MIC Bsu [1] [µg/mL] | MBC Spy [2] [µg/mL] | MIC Spy [2] [µg/mL] | MIC Kpn [3] [µg/mL] | MBC Eco (Escherichia coli CCUGT) [µg/mL] | MIC Eco (Escherichia coli CCUGT) [µg/mL] | MBC Efa [4] [µg/mL] | MIC Efa [4] [µg/mL] | MBC Aba [7] [µg/mL] | MIC Aba [7] [µg/mL] | MIC against A. baumannii, in molar units [7] [µM] | MIC Sau [8] [µg/mL] | MBC A. baumannii SI-648 (OXA-23, OXA-51-like) [9] [µg/mL] | MIC A. baumannii SI-648 (OXA-23, OXA-51-like) [9] | MBC P. aeruginosa VR-143/97 (VIM-1) [10] [µg/mL] | MIC P. aeruginosa VR-143/97 (VIM-1) [10] [µg/mL] | MBC S. aureus ATCC 43300 (MRSA) [11] [µg/mL] | MIC S. aureus ATCC 43300 (MRSA) [11] [µg/mL] | MBC A. baumannii SI-310 (OXA-24) [12] [µg/mL] | other results
1 | 1-Oct-Aib-Gly-Leu-Aib-Lys-Lys-Leu-Aib-Lys-Ile-Lol [Peptide 5] | 16 | 8 | 4 | 4 | 16 | > 16 | 8 | 8 | 4 | 16 | 4 | 1.8 to 7.2 | 16 | 4 | 4 μg/mL and 4/4 μg/mL | 8 | 8 | 2 | 2 | 4 | MBC Kpn [3]: 16 µg/mL; MBC Pae [5]: > 16 µg/mL; MIC Pae [5]: 8 µg/mL; MIC against six of the eight bacterial strains tested ([6]; reference panel): 4 to 8 µg/mL; MIC against the other two strains ([6]; reference panel): 16 µg/mL; MBC Sau [8]: 16 µg/mL; MIC A. baumannii SI-310 (OXA-24) [12]: 2 µg/mL; MBC P. aeruginosa 101/1477 (IMP-1) [13]: 8 µg/mL; MIC P. aeruginosa 101/1477 (IMP-1) [13]: 8 µg/mL; MBC P. aeruginosa 506/99 (VIM-2) [14]: 8 µg/mL; MIC P. aeruginosa 506/99 (VIM-2) [14]: 8 µg/mL; MBC A. baumannii SI-12 (OXA-23) [15]: 4 µg/mL; MIC A. baumannii SI-12 (OXA-23) [15]: 4 μg/mL and 4/4 μg/mL; MBC P. aeruginosa VA-182/00 (VIM-2) [16]: 8 µg/mL; MIC P. aeruginosa VA-182/00 (VIM-2) [16]: 8 µg/mL
2 | CCCCCCCC(=O)NC(C)(C)C(=O)N[C@@H](CCCCN)C(=O)N[C@@H](CC(C)C)C(=O)NC(C)(C)C(=O)N[C@@H](CCCCN)C(=O)N[C@@H](CCCCN)C(=O)N[C@@H](CC(C)C)C(=O)NC(C)(C)C(=O)NCC(=O)N[C@H](C(=O)N[C@@H](CC(C)C)C(N)=O)[C@@H](C)CC [Peptide 11, 1-Oct-Aib-Lys-Leu-Aib-Lys-Lys-Leu-Aib-Gly-Ile-Leu-NH2] (Octanoyl-[Aib]KL[Aib]KKL[Aib]GIL-NH2) | 16 (≈ 12.4 µM) | 2 (≈ 1.55 µM) | 16 (≈ 12.4 µM) | 4 (≈ 3.09 µM) | > 128 | 128 (≈ 99 µM) | 16 (≈ 12.4 µM) | 32 (≈ 24.8 µM) | 4 (≈ 3.09 µM) | 2 (≈ 1.55 µM) | 2 (≈ 1.55 µM) | 1.8 to 7.2 | 16 (≈ 12.4 µM) | 4 (≈ 3.09 µM) | 2 µg/mL (≈ 1.55 µM) | 8 (≈ 6.19 µM) | 8 (≈ 6.19 µM) | 2 (≈ 1.55 µM) | 2 (≈ 1.55 µM) | 4 (≈ 3.09 µM) | Hemolysis (class) [17]: -; lowest MIC [6]: 2 µg/mL; MIC A. baumannii SI-310 (OXA-24) [12]: 2 µg/mL (≈ 1.55 µM); MBC P. aeruginosa 101/1477 (IMP-1) [13]: 8 µg/mL (≈ 6.19 µM); MIC P. aeruginosa 101/1477 (IMP-1) [13]: 8 µg/mL (≈ 6.19 µM); MBC P. aeruginosa 506/99 (VIM-2) [14]: 16 µg/mL (≈ 12.4 µM); MIC P. aeruginosa 506/99 (VIM-2) [14]: 8 µg/mL (≈ 6.19 µM); MBC A. baumannii SI-12 (OXA-23) [15]: 32 µg/mL (≈ 24.8 µM); MIC A. baumannii SI-12 (OXA-23) [15]: 32 μg/mL and 32/32 μg/mL; MBC P. aeruginosa VA-182/00 (VIM-2) [16]: 32 µg/mL (≈ 24.8 µM); MIC P. aeruginosa VA-182/00 (VIM-2) [16]: 8 µg/mL (≈ 6.19 µM)
3 | CCCCCCCC(=O)NC(C)(C)C(=O)N[C@@H](CCCCN)C(=O)N[C@@H](CC(C)C)C(=O)NC(C)(C)C(=O)N[C@@H](CCCCN)C(=O)NCC(=O)N[C@@H](CC(C)C)C(=O)NC(C)(C)C(=O)NCC(=O)N[C@H](C(=O)N[C@H](CO)CC(C)C)[C@@H](C)CC [Peptide 1, 1-Oct-Aib-Lys-Leu-Aib-Lys-Gly-Leu-Aib-Gly-Ile-Lol] (Octanoyl-[Aib]KL[Aib]KGL[Aib]GI[Leu(ol)]) | 16 (≈ 13.2 µM) | 4 (≈ 3.31 µM) | 4 (≈ 3.31 µM) | 2 (≈ 1.65 µM) | > 128 | 32 (≈ 26.5 µM) | 32 (≈ 26.5 µM) | 2 (≈ 1.65 µM) | 2 (≈ 1.65 µM) | 16 (≈ 13.2 µM) | 4 (≈ 3.31 µM) | 1.8 to 7.2 | 16 (≈ 13.2 µM) | 16 (≈ 13.2 µM) | 8 µg/mL (≈ 6.62 µM) | 32 (≈ 26.5 µM) | 32 (≈ 26.5 µM) | 2 (≈ 1.65 µM) | 2 (≈ 1.65 µM) | 4 (≈ 3.31 µM) | MIC Pae [5]: 16 µg/mL (≈ 13.2 µM); lowest MIC [6]: 2 µg/mL; MIC A. baumannii SI-310 (OXA-24) [12]: 4 μg/mL and 4/4 μg/mL; MBC P. aeruginosa 101/1477 (IMP-1) [13]: 16 µg/mL (≈ 13.2 µM); MIC P. aeruginosa 101/1477 (IMP-1) [13]: 8 µg/mL (≈ 6.62 µM); MBC P. aeruginosa 506/99 (VIM-2) [14]: 32 µg/mL (≈ 26.5 µM); MIC P. aeruginosa 506/99 (VIM-2) [14]: 16 µg/mL (≈ 13.2 µM); MBC A. baumannii SI-12 (OXA-23) [15]: 8 µg/mL (≈ 6.62 µM); MIC A. baumannii SI-12 (OXA-23) [15]: 4 µg/mL (≈ 3.31 µM); MBC P. aeruginosa VA-182/00 (VIM-2) [16]: 16 µg/mL (≈ 13.2 µM); MIC P. aeruginosa VA-182/00 (VIM-2) [16]: 16 µg/mL (≈ 13.2 µM)
